{"source": "patent US10105400B2", "about": "“Composition of chicken liver hydrolysates and method for improving alcohol metabolism, as well as preventing and treating liver fibrosis” (NATIONAL TAIWAN UNIVERSITY, priority 2016, dated 2018)", "key": {"[1]": {"assay": "Body weight and feed efficiency, thioacetamide (TAA) liver fibrosis model", "format": "in vivo, Wistar rats", "settings": "CNS group: 200 mg/kg-bw carnosine oral gavage daily, 10 weeks, TAA 100 mg/kg-bw i.p.", "method": "(§1) Forty male Wistar rats of 5-week old were purchased from BioLASCO Taiwan Co., Ltd. (Taipei, Taiwan). Two rats were housed in one cage in an animal room at 22±2° C. with a 12/12 h light-dark cycle. After one week of acclimation, the mice were randomly divided into 5 groups:\n(a) The control group (The CON group): intraperitoneal injection of 0.3 mL normal saline, and administration of 0.5 mL ddH2O by oral gavage;\n(§2) (b) The thioacetamide group (The TAA group): intraperitoneal injection of 100 mg TAA/kg-body weight (bw) in 0.3 mL ddH2O and administration of 0.5 mL ddH2O by oral gavage;\n(§3) (c) The composition of the chicken liver hydrolysates with low dosage (The CLH-L group): intraperitoneal injection of 100 mg TAA/kg-bw in 0.3 mL ddH2O and administration of 200 mg/kg-bw CLH in 0.5 mL ddH2O by oral gavage;\n(§4) (d) The composition of the chicken liver hydrolysates with high dosage (The CLH-H group): intraperitoneal injection of 100 mg TAA/kg-bw in 0.3 mL ddH2O and administration of 600 mg/kg-bw CLH in 0.5 mL ddH2O by oral gavage; and (e) The carnosine group (The CNS group): intraperitoneal injection of 100 mg TAA/kg-bw in 0.3 mL ddH2O and administration of 200 mg/kg-bw carnosine in 0.5 mL ddH2O by oral gavage;\n(§5) The experiment lasted for 10 weeks. The rats were injected with ddH2O or TAA intraperitoneally once a week and administered of ddH2O, the composition of the chicken liver hydrolysates or carnosine every day. One kilogram of the chow diet comprises 487 g carbohydrate, 239 g protein, 50 g fat, 51 g fibre and 70 g ash (Laboratory Rodent Diet 5001, PMI Nutrition International/Purina Mills LLC, Richmond, Ind., USA). All rats were fasted overnight before euthanized at the last day of experiment, the organs and the tissues were collected and weighted, and stored at −80° C. for further analysis.\n(§6) The experiment was conducted by a complete randomized design. The raw data was expressed as “mean±SEM”. The data was analyzed by analysis of variance (ANOVA) and Fisher's Least Significant Different (LSD) test was used to distinguish significant differences among groups. […]"}, "[2]": {"assay": "Relative sizes of organs and tissues, TAA liver fibrosis model", "format": "in vivo, Wistar rats", "method": "as §1, §2, §3, §4, §5\n(§7) The experiment was conducted by a complete randomized design. The raw data was expressed as “mean±SEM”. The data was analyzed by analysis of variance (ANOVA) and Fisher's Least Significant Different (LSD) test was used to distinguish significant differences among groups. All statistical analysis of the data was performed by SAS9.2 software (SAS Institute Inc, Cary, N.C., USA). If there is no significant difference between two groups, these groups werelabeled with one identical letter."}, "collagen": {"system": "collagen", "assay": "Collagen deposition in livers (Sirius red stain, collagen kit), TAA model", "format": "in vivo, Wistar rats", "method": "as §1, §2\n(c) The composition of the chicken liver hydrolysates with low dosage (The CLH-L group): intraperitoneal injection of 100 mg TAA/kg-bw in 0.3 mL ddH2O and administration of 200 mg/kg-bw CLH in 0.5 mL ddH2O by oral gavage; […]\nas §6\nSirius red dye can bind to the helical structure of the collagen, and thus the Sirius red stain assay can be used to examine the deposition of collagen in livers. Furthermore, liver collagen levels of the mice are also determined by using commercial kits (Chondres Inc., Redmond, Wash., USA). […] The collagen content in the sample is calculated by using a standard curve plotted by bovine Type I collagen and expressed as μg/mg-protein. […]"}, "[3]": {"system": "thioacetamide (TAA)-treated", "assay": "Biochemical indexes of liver in sera, TAA liver fibrosis model", "format": "in vivo, Wistar rats", "settings": "serum; CNS group: 200 mg/kg-bw carnosine oral gavage daily, 10 weeks, TAA 100 mg/kg-bw i.p.", "method": "as §1, §2, §3, §4, §5, §7"}, "[4]": {"system": "thioacetamide (TAA)-treated mice", "assay": "Biochemical indexes of liver in sera, TAA liver fibrosis model", "format": "in vivo, Wistar rats", "settings": "serum; CNS group: 200 mg/kg-bw carnosine oral gavage daily, 10 weeks, TAA 100 mg/kg-bw i.p.", "method": "as §1, §2, §3, §4, §5, §7"}, "[5]": {"assay": "Body weight, food intake and relative sizes of organs and tissues of mice fed alcohol liquid diet", "format": "in vivo, C57/BL/6J (B6) mice", "settings": "SLM group: 150 mg/kg-bw silymarin oral gavage, 8 weeks, ethanol diet", "method": "(§8) Forty eight male C57/BL/6J (B6) mice of 8-week old were purchased from the Laboratory Animal Center of National Taiwan University. The body weight of these B6 mice were approximately 19 g to 21 g. Two mice were housed in one cage in an animal room at 22±2° C. with a 12/12 hr light-dark cycle. After one week of acclimation, the mice were randomly divided into 6 groups:\n(a) The control group (the CON group): administered with the control liquid diet and 0.2 mL ddH2O by oral gavage.\n(b) The ethanol group (the EtOH group): administered with the Lieber-DeCarli regular ethanol diet and 0.2 mL ddH2O by oral gavage.\n(c) The composition of the chicken liver hydrolysates with low dosage (The CLH-L group): administered with the Lieber-DeCarli regular ethanol diet and 80 mg/kg-body weight (bw) of the composition of the chicken liver hydrolysates in 0.2 mL ddH2O by oral gavage.\n(d) The composition of the chicken liver hydrolysates with medium dossage (The CLH-M group): administered with the Lieber-DeCarli regular ethanol diet and 320 mg/kg-bw of the composition of the chicken liver hydrolysates CLH in 0.2 mL ddH2O by oral gavage.\n(e) The composition of the chicken liver hydrolysates with high dosage (The CLH-H group): administered with the Lieber-DeCarli regular ethanol diet and 1280 mg/kg-bw of the composition of the chicken liver hydrolysates in 0.2 mL ddH2O by oral gavage.\n(§9) (f) The silymarin group (The SLM group): administered with the Lieber-DeCarli regular ethanol diet and 150 mg/kg-bw of silymarin in 0.2 mL ddH2O by oral gavage.\nThe animal experiment lasted for 8 weeks; the body weight of each mouse was recorded at the beginning and the end of the experiment. The daily liquid feed (mL) intakes as a food intake of each mouse was calculated. Mice were sacrificed after 8 weeks and the blood, heart, kidney, epididymal fat tissue, and perirenal fat tissue were all collected, weighted and then stored at −80° C. for further analysis.\nThe experiment was conducted by a complete randomized design. The raw data was presented as “mean±standard error of the mean (SEM)”. The data was analyzed by one way-analysis of variance (ANOVA) and Fisher's Least Significant Different test to distinguish significant differences among groups. All statistical analysis of data was performed by SAS9.2 software (SAS Institute Inc, Cary, N.C., USA). If there is no significant difference between two groups, these groups were labeled with one identical letter."}, "ABTS+ free radical": {"system": "ABTS+ free radical", "assay": "Trolox equivalent antioxidant capacity (TEAC) of sera and livers, alcohol liquid diet mice", "format": "in vivo, C57/BL/6J (B6) mice", "settings": "SLM group: 150 mg/kg-bw silymarin oral gavage, 8 weeks, ethanol diet", "method": "as §8, with “groups: […]” for “groups:”\nas §9\n(§10) The animal experiment lasted for 8 weeks; the body weight of each mouse was recorded at the beginning and the end of the experiment. The daily liquid feed (mL) intakes as a food intake of each mouse was calculated. […]\n(§11) The experiment was conducted by a complete randomized design. […] The data was analyzed by one way-analysis of variance (ANOVA) and Fisher's Least Significant Different test to distinguish significant differences among groups. […]\n(§12) To evaluate the antioxidative ability of the composition of the chicken liver hydrolysates, the ABTS^+ free radical clearing ability is tested and represented as trolox equivalent antioxidant capacity (TEAC). The lipid peroxidation is also determined by thiobarbituric acid reactive substance (TBARS) value."}, "lipid peroxidation": {"system": "lipid peroxidation", "assay": "Thiobarbituric acid reactive substance (TBARS) value of sera and livers, alcohol liquid diet mice", "format": "in vivo, C57/BL/6J (B6) mice", "settings": "SLM group: 150 mg/kg-bw silymarin oral gavage, 8 weeks, ethanol diet", "method": "as §8, with “groups: […]” for “groups:”\nas §9, §10, §11, §12"}, "[6]": {"settings": "CNS group: 200 mg/kg-bw carnosine oral gavage daily, 10 weeks, TAA 100 mg/kg-bw i.p."}}, "note": "Marks after values point to notes of the source that are not given here.", "data": [{"smiles": "NCCC(=O)N[C@@H](Cc1cnc[nH]1)C(=O)O", "note": "[CNS, carnosine]", "values": [{"measurement": "Feed efficiency", "setting": "[1]", "result": "8.89 ± 0.33^b %"}, {"measurement": "Final body weight", "setting": "[1]", "result": "380.61 ± 10.47^b g"}, {"measurement": "Weight increase", "setting": "[1]", "result": "163.99 ± 7.63^a g"}, {"measurement": "Relative size Heart", "setting": "[2]; [6]", "result": "0.31 ± 0.01^a g/100 g-bw"}, {"measurement": "Relative size Kidney", "setting": "[2]; [6]", "result": "0.74 ± 0.01^a g/100 g-bw"}, {"measurement": "Relative size Liver", "setting": "[2]; [6]", "result": "4.14 ± 0.09^a g/100 g-bw"}, {"measurement": "Relative size Perirenal fat", "setting": "[2]; [6]", "result": "1.47 ± 0.11^a g/100 g-bw"}, {"measurement": "Relative size Spleen", "setting": "[2]; [6]", "result": "0.31 ± 0.02^a g/100 g-bw"}, {"measurement": "relative sizes of liver, kidney and spleen", "setting": "[2]; carnosine 200 mg/kg-bw vs TAA group, p>0.05", "result": "does not decrease"}, {"measurement": "liver collagen content", "setting": "collagen; CNS group (carnosine 200 mg/kg-bw) compared to TAA group, FIG. 7(B)", "result": "significantly decreased"}, {"measurement": "collagen deposition in livers (Sirius red stain)", "setting": "collagen; CNS group (carnosine 200 mg/kg-bw) vs TAA group, FIG. 7(A)", "result": "remarkably decreased"}, {"measurement": "ALT", "setting": "[3]", "result": "63.88 ± 5.86^b U/L"}, {"measurement": "AST", "setting": "[4]", "result": "211.00 ± 24.57^b U/L"}, {"measurement": "Blood urea nitrogen", "setting": "[4]", "result": "15.4 ± 0.89", "unit": "mg/dL"}, {"measurement": "Total cholesterol", "setting": "[4]", "result": "52.38 ± 3.53^a mg/dL"}, {"measurement": "Total protein", "setting": "[4]", "result": "4.26 ± 0.24^b g/dL"}, {"measurement": "Triglyceride", "setting": "[4]", "result": "33.25 ± 3.19^b mg/dL"}]}, {"smiles": "COc1cc(C2Oc3cc([C@H]4Oc5cc(O)cc(O)c5C(=O)[C@@H]4O)ccc3OC2CO)ccc1O", "note": "(stereo partly drawn) [SLM, silymarin]", "values": [{"measurement": "Relative size Epididymal fat tissue", "setting": "[5]", "result": "1.68 ± 0.15^bc g/100 g-bw"}, {"measurement": "Relative size Heart", "setting": "[5]", "result": "0.45 ± 0.01^ab g/100 g-bw"}, {"measurement": "Relative size Kidney", "setting": "[5]", "result": "1.19 ± 0.04^ab g/100 g-bw"}, {"measurement": "Relative size Liver", "setting": "[5]", "result": "4.45 ± 0.06^a g/100 g-bw"}, {"measurement": "Relative size Perirenal fat tissue", "setting": "[5]", "result": "0.37 ± 0.04^b g/100 g-bw"}, {"measurement": "Relative size Spleen", "setting": "[5]", "result": "0.18 ± 0.01^b g/100 g-bw"}, {"measurement": "TEAC Liver", "setting": "ABTS+ free radical", "result": "294.16 ± 14.82^a nmole/mg-protein"}, {"measurement": "TEAC Serum", "setting": "ABTS+ free radical", "result": "4.48 ± 0.18^b nmole/mL"}, {"measurement": "TBARS Liver", "setting": "lipid peroxidation", "result": "0.64 ± 0.12^ab nmole MDA eq./mg-protein"}, {"measurement": "TBARS Serum", "setting": "lipid peroxidation", "result": "52.62 ± 2.26^bc nmole MDA eq./mL"}]}]}
